Laboratory results as given in patent publication US20110250133A1, “GASTRIN […] PEPTIDE COMPOUNDS” (priority 2003, published 2011).
pEC50, pIC50, pKd: −log10 of the molar value. Read-outs that look alike come from different tables or passages of the source.

Legend:
[1] = test system: PC3 cells; test: Internalization and efflux assay in PC3 cells; type: cell-based, human; settings: 125I-BBN or Lu-177 complexes; for Internalisation (40 minutes): 40 min at 37° C.; for Efflux (2 h): 2 h at 37° C. after 40 min loading
Experimental: These studies were conducted in a 96-well plate. […] Incubations were stopped by the addition of 200 μl of ice-cold binding buffer. Plates were washed twice with binding buffer. To remove surface-bound radioligand, the cells were incubated with 0.2M acetic acid (in saline), pH 2.8 for 2 min. Plates were centrifuged and the acid wash media were collected to determine the amount of radioactivity which was not internalized. The cells were collected to determine the amount of internalized ^125I-BBN, and all samples were analyzed in the gamma counter. Data for the internalization assay was normalized by comparing counts obtained at the various time points with the counts obtained at the final time point (T=40 min).
For the efflux studies, after loading the PC3 cells with ^125I-BBN or radiolabeled compounds of the invention for 40 min at 37° C., the unbound material was filtered, and the % of internalization was determined as above. The cells were then resuspended in binding buffer at 37° C. for up to 3 h.

[2] = test system: PC3 tumor-bearing nude mice; type: in vivo, mouse
Experimental: In all studies, mice were administered 100 μL of ^177Lu-labeled test compound at 200 μCi/kg, i.v., with a residence time of 1 and 24 h per group (n=3-4). Tissues were analyzed in an LKB 1282 CompuGamma counter with appropriate standards.

[3] = test system: PC3 tumor-bearing nude mouse model; test: Radiotherapy efficacy studies in the PC3 tumor-bearing nude mouse model; type: in vivo; settings: 177Lu labeled; for survival, Short Term Efficacy Study: 30 mCi/kg, up to 30 days, vs untreated and DO3A-monoamide-Aoc-QWAVGHLM-NH2 control; for survival, Long Term Efficacy Study: same dose, up to 120 days, vs controls
Experimental: Radiotherapy studies were performed using the PC3 tumor-bearing nude mouse model. […] (n=12 for each treatment group for up to 30 days, and n=36 for the pooled untreated control group for up to 31 days). […] The subjects were housed in a barrier environment for the duration of the study. Body weight and tumor size (by caliper measurement) were collected on each subject 3 times per week for the duration of the study. Criteria for early termination included: death; loss of total body weight (TBW) equal to or greater than 20%; tumor size equal to or greater than 2 cm^3.

[4] = target: T1, NMB-R (Rattus norvegicus, UniProt P24053); test: Competition with 125I-NMB for NMB-R in C6 cells (linker specificity); type: binding, rodent; settings: for receptor subtype preference (GRP-R vs NMB-R): from IC50 with 125I-NMB (C6) and 125I-BBN (PC3), cut off 10x the IC50 of [Tyr4]-BBN;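 for all read-outs here: test cells: rodent glioblastoma C6 line carrying NMB-R, human prostate cancer PC3 line carrying GRP-R, affinity fitted by one-site competition nonlinear regression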
T1 construct: C6, an NMB-R expressing rodent glioblastoma cell line; host or cells: C6 glioblastoma cells, intact adherent cells
T1 sequence (P24053 1-390): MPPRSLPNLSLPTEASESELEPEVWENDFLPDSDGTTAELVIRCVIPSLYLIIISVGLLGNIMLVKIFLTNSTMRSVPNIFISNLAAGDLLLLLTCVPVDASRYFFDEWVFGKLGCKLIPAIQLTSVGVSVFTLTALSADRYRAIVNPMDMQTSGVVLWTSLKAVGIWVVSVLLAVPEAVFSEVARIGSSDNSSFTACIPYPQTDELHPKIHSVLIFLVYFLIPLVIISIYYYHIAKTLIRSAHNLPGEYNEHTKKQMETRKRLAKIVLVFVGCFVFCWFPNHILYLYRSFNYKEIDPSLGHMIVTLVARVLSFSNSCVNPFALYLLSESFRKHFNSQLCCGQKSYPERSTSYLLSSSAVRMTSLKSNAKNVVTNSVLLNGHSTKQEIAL
Experimental: Two cell lines, C6, an NMB-R expressing rodent glioblastoma cell line and PC3, a GRP-R expressing human prostate cancer cell line, were used in this assay. The affinity of various unlabeled compounds for each receptor subtype (NMB-R and GRP-R) was determined indirectly by measuring its ability to compete with the binding of ^125I-NMB or ^125I-BBN to its corresponding receptors in C6 and PC3 cells.
Cells for the assays were plated at a concentration of 9.6×10^4/well in 48 well poly-lysine coated plates (Beckton Dickinson Biocoat). PC3 were obtained from ATCC(CRL-1435) and cultured in RPMI 1640 (ATCC) supplemented with 2 mM L-glutamine, 1.5 g/L Sodium bicarbonate, 10 mM HEPES and 10% FBS. […] PC3 cells for the assays were plated at a concentration of 2.0×10^4 cells/well in 96-well white/clear bottom plates (Falcon Optilux-I). Plates were used for the assays on day 2 of the post-plating.
RPMI 1640 (ATCC) containing 25 mM HEPES, 0.2% BSA fraction V, 1.0 mM AEBSF (CAS # 3087-99-7) and 0.1% Bacitracin (CAS # 1405-87-4), pH 7.4. Custom made ^125I-[Tyr^0]NMB, >2.0 Ci/μmole (Amersham Life Science) [^125I-NMB] and commercially available ^125I-[Tyr^4]BBN, >2.0 Ci/μmole (Perkin Elmer Life Science) [^125I-BBN] were used as radioligands.
Using a 48-well plate assay system (for C6 study) competition experiments were performed using ^125I-NMB. […] Selection of compounds for the assay was based on linker subtype.
The binding parameters obtained from the studies were analyzed using a one-site competition non-linear regression analysis with GraphPad Prism. The relative affinity of various compounds for NMB-R in C6 cells were compared with those obtained using commercially available [Tyr^4]-BBN and [Tyr^0]-NMB. To distinguish the GRP-R preferring compounds from NMB-R plus GRP-R preferring compounds, IC50 values obtained for each compound were compared with those obtained from [Tyr^4-BBN with ^125I-NMB on C6 cells.

[5] = test system: human PC-3 nude mouse model; type: in vivo
Experimental: For biodistribution studies, the radiolabeled compounds were prepared as described above except that a 1:1 molar ratio of ligand to Lutetium was used to guarantee complete chelation of all starting ligand. The HPLC peak containing the resulting ^177Lu complex was collected in 1 mL of 9:1 Bacteriostatic saline/ASCOR L500® solution containing 0.1% HSA, and the organic solvents were removed using a speed-vacuum device. The remaining solution was further diluted to the required radioconcentration using Bacteriostatic saline/ASCOR L500® Ascorbic Acid Injection USP mixed in a 9 to 1 [v/v]) ratio. The radiochemical purity of all samples was […].
10-50 μCi of the HPLC purified compounds were administered to each mouse by i.v. tail vein injection, n=4 per group. […] Radioactivity was assayed in a gamma counter. The data was expressed as percentage of the total administered radioactivity (% ID) for the urine combined with the bladder, as well as for the blood pool; and percentage of the total administered radioactivity per gram (% ID/g) for all the other tested organs.

[6] = target: gastrin releasing peptide receptor (GRP-R) (human) (UniProt P30550); test: saturation binding of carrier-added radioligand on PC-3 cells, 4 C
[7] = test system: BT-474 human breast cancer cells; test: Effect of drug treatment on GRP receptor binding (177Lu-AMBA) in BT-474 cells; type: cell-based; settings: BT-474; relative to untreated control; drug 0.1-1.0 μM (4-OH Tamoxifen 0.001-0.1 μM)
Experimental: BT-474 breast cancer cells (human primary invasive ductal carcinoma; ER+, PR+, amplified HER2/neu+) were obtained from the American Type Culture Collection. The growth medium for BT-474 cells is Hybri-care Medium (Cat No: 46X, ATCC) supplemented with 10% heat inactivated FBS (Hyclone, SH30070.03), 0.2% NaHCO3, and antibiotic/antimycotic “PSF-1×” (GibcoBRL, 15240-062) for a final concentration of penicillin-streptomycin (1×, 100 units/mL), and fungizone (0.25 μg/mL). […] Cells for binding experiments were plated on Day 0 at 5.6×10^4 cells/cm^2 in 96-well white/clear bottom microtiter plates (Falcon Optilux-I), or 96 well black/clear collagen I cellware plates (Beckton Dickinson Biocoat).
(§1) RPMI 1640 supplemented with 20 mM HEPES, 0.1% BSA (w/v), 0.5 mM PMSF (AEBSF), bacitracin (50 mg/500 ml), pH 7.4.
(§2) Incubations were stopped by the addition of 200 μL of ice-cold binding buffer. Plates were washed three more times with binding buffer, 140 μL of scintillation fluid was added to each well, the plates were sealed and analyzed on a Microβ plate reader (Microbeta Trilux, Perkin-Elmer).
Treatment: BT-474 cells were plated on Day 0 and treated on Days 1 and 2 (DT1, DT2).

[8] = test system: T47D human breast cancer cells; test: Effect of drug treatment on GRP receptor binding (177Lu-AMBA) in T47D cells; type: cell-based; settings: T-47D; relative to untreated control; drug 0.1-1.0 μM (4-OH Tamoxifen 0.001-0.1 μM)
From the text: T-47D breast cancer cells (human metastatic mammary gland ductal adenocarcinoma isolated from pleural effusion, ER+, PR+) were obtained from the American Type Culture Collection.

[9] = test system: PC-3 prostate cancer cells; test: Effect of drug treatment on GRP receptor binding (177Lu-AMBA) in PC-3 cells; type: cell-based, human; settings: PC-3; drug 0.1-1.0 μM (4-OH Tamoxifen 0.001-0.1 μM)
Experimental: as §1, §2
PC-3 (human prostate adenocarcinoma, bone metastasis, AR-, ER) were obtained from the American Type Culture Collection. The growth medium for PC-3 cells is RPMI 1640 (10-041-CM, Mediatech, Inc), supplemented with 10% heat inactivated FBS (Hyclone, SH30070.03) and PSF-1× (as in Example LXVI). The binding buffer, lapatinib solutions, treatment method and cell binding assay is the same as in Example LXVI.

[10] = test system: ZR-75-1 human breast cancer cells; test: Effect of 4-hydroxytamoxifen on GRP receptor binding and glucose uptake in ZR-75-1 cells; type: cell-based
Experimental: Method: ZR-75-1 breast cancer cell line (human ductal carcinoma with estrogen receptor) was obtained from the American Type Culture Collection (ATCC).
ZR-75-1 cells were plated on Day 0 (40 k/well 96-well PE Scintiplate). […] To determine the cell numbers and the proliferation, 100 uL of 10% CCK—F solution in DPBS (Molecular technologies) was added to the same plate, incubated for 30 min at 37° C. and the relative fluorescence (RFU) measured at 535 nm. Based on the cell numbers and the ^177Lu-binding, the Bmax (fmoles bound/million cells) was calculated.
The cell numbers were determined with CCK—F treatment as described above.

[11] = test system: ZR-75-1 human breast cancer cells; test: Longterm (2-12 days) effect of 4-hydroxytamoxifen on GRP receptor binding in ZR-75-1 cells; type: cell-based
Experimental: The ZR-75-1 cells were seeded at 15K per well onto two 96-well scintiplates on the same day as 2 days study.

[12] = target: gastrin releasing peptide receptor (GRP-R) (human) (UniProt P30550); test: competition with 67Ga-AMBA on PC-3 cells, 4 C
[13] = target: gastrin releasing peptide receptor (GRP-R) (human) (UniProt P30550); test: competition with 177Lu-AMBA on PC-3 cells, 4 C
[14] = target: gastrin releasing peptide receptor (GRP-R) (human) (UniProt P30550); test: competition with 125I-universal ligand, receptor autoradiography on human cancer tissue
[15] = target: human neuromedin-B preferring receptor (NMB-R) (human) (UniProt P28336); test: as above
[16] = target: T2, GRP-R (Homo sapiens, UniProt P30550); test: Competition studies of modified BBN analogs with 125I-BBN for GRP-R in PC3 cells (Example LXI); type: binding
T2 construct: host or cells: PC3 (PC-3) human prostate cancer cells, intact adherent cells
Experimental: PC3 cell lines were obtained from ATCC(CRL-1435) and cultured in RPMI 1640 (ATCC) supplemented with 2 mM L-glutamine, 1.5 g/L Sodium bicarbonate, 10 mM HEPES and 10% FBS. […] PC3 cells for the assays were plated at a concentration of 2.0×10^4 cells/well in a 96-well white/clear bottom plates (Falcon Optilux-I). Plates were used for the assays on day 2 of the post-plating.
^125I-BBN (Cat # NEX258) was obtained from PerkinElmer Life Sciences.
All compounds tested were dissolved in binding buffer and appropriate dilutions were also done in binding buffer. PC3 cells for assay were seeded at a concentration of 2.0×10^4/well either in 96-well black/clear collagen I cellware plates (Beckton Dickinson Biocoat). Plates were used for binding studies on day 2 post-plating. The plates were checked for confluency (>90% confluent) prior to assay. […] The studies were conducted with an assay volume of 75 μL per well. Triplicate wells were used for each data point. After the addition of the appropriate solutions, plates were incubated for 1 hour at 4° C. Incubation was ended by the addition of 200 μL of ice-cold incubation buffer. Plates were washed 5 times and blotted dry. Radioactivity was detected using either a LKB CompuGamma counter or a microplate scintillation counter.

[17] = 177Lu-labeled, 1 and 24 h, compared with control DO3A-monoamide-Aoc-QWAVGHLM-NH2
[18] = 177Lu-labeled, compared with control DO3A-monoamide-Aoc-QWAVGHLM-NH2
[19] = ZR-75-1, long-term treatment, 100 nM

Chain of gastrin releasing peptide receptor (GRP-R) (human) (P30550 whole entry): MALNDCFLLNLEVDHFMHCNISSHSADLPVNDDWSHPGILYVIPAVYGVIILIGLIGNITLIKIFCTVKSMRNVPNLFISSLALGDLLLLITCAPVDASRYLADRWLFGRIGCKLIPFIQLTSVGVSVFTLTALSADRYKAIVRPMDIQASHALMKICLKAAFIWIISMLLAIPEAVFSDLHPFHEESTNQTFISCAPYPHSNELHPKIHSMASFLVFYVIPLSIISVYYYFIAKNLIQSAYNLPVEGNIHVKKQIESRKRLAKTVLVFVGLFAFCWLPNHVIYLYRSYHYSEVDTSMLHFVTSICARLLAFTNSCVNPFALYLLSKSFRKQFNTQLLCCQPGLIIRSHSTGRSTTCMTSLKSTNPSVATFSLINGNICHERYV
T2 sequence (P30550 whole entry): as above
Chain of human neuromedin-B preferring receptor (NMB-R) (human) (P28336 whole entry): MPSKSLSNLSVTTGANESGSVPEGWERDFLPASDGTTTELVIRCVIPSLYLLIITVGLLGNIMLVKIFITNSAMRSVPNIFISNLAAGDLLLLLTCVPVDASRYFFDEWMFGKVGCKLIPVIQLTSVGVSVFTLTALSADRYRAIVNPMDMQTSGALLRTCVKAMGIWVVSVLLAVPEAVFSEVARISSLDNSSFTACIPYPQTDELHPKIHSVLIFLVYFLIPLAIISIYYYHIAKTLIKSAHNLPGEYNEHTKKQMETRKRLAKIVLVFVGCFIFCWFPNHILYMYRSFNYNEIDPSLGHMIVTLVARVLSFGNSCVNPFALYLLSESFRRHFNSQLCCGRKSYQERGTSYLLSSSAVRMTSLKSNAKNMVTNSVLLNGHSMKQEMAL

CSCC[C@H](NC(=O)[C@H](CC(C)C)NC(=O)[C@H](Cc1c[nH]cn1)NC(=O)CNC(=O)[C@@H](NC(=O)[C@H](C)NC(=O)[C@H](Cc1c[nH]c2ccccc12)NC(=O)[C@H](CCC(N)=O)NC(=O)CC[C@@H](C)[C@H]1CC[C@H]2[C@@H]3CC[C@@H]4C[C@@H](NC(=O)CNC(=O)CN5CCN(CC(=O)O)CCN(CC(=O)O)CCN(CC(=O)O)CC5)CC[C@]4(C)[C@H]3C[C@H](O)[C@]12C)C(C)C)C(N)=O [Compound L63, N-[(3β,5β,12α)-3-[[[[[4,7,10-Tris(carboxymethyl)-1,4,7,10-tetraazacyclododec-1-yl]acetyl]amino]acetyl]amino]-12-hydroxy-24-oxocholan-24-yl]-L-glutaminyl-L-tryptophyl-L-alanyl-L-valyl-glycyl-L-histidyl-L-leucyl-L-methioninamide]
Internalisation (40 minutes) [1]: 64%
Efflux (2 h) [1]: 0%
uptake in the tumor [2, 17]: high tumor uptake
distribution of radioactivity in the blood, liver and kidneys [2, 18]: increased blood and liver values at early times
uptake in the mouse pancreas [2, 18]: much higher
survival, Short Term Efficacy Study [3]: increased survival
receptor subtype preference (GRP-R vs NMB-R) [4]: dual affinity for both GRP-R and NMB-R

CC1(N(CC(=O)O)CC(=O)O)CN(CC(=O)O)[C@@H]2CCCC[C@H]2N(CC(=O)O)C1 [XX100]
Blood % ID (7 d column, *72 h timepoint) ([5]; 177Lu complex, i.v., PC-3 nude mouse, 72 h): 0.00 ± 0.00 % ID
clearance and localization of radioactivity ([5]; Lu-177 complexes, human PC-3 nude mouse model, 1 h, 1 and 7 days): rapidly cleared from the body with little residual localization in any organs or tissue

CSCC[C@H](NC(=O)[C@H](CC(C)C)NC(=O)[C@H](Cc1c[nH]cn1)NC(=O)CNC(=O)[C@@H](NC(=O)[C@H](C)NC(=O)[C@H](Cc1c[nH]c2ccccc12)NC(=O)[C@H](CCC(N)=O)NC(=O)CC[C@@H](C)[C@H]1CC[C@H]2[C@@H]3[C@H](O)C[C@@H]4C[C@@H](NC(=O)CNC(=O)CN5CCN(CC(=O)O)CCN(CC(=O)O)CCN(CC(=O)O)CC5)CC[C@]4(C)[C@H]3C[C@H](O)[C@]12C)C(C)C)C(N)=O [Compound L64, N-[(3β,5β,7α,12α)-3-[[[[[4,7,10-Tris(carboxymethyl)-1,4,7,10-tetraazacyclododec-1-yl]acetyl]amino]acetyl]amino]-7,12-dihydroxy-24-oxocholan-24-yl]-L-glutaminyl-L-tryptophyl-L-alanyl-L-valyl-glycyl-L-histidyl-L-leucyl-L-methioninamide]
Internalisation (40 minutes) [1]: 69%
Efflux (2 h) [1]: 20%
uptake in the tumor [2, 17]: much higher
uptake in the mouse pancreas [2, 18]: much higher
survival, Short Term Efficacy Study [3]: increased survival
survival, Long Term Efficacy Study [3]: significantly increased survival
receptor subtype preference (GRP-R vs NMB-R) [4]: dual affinity for both GRP-R and NMB-R

67Ga-AMBA (peptide)
Binding capacity (Bmax) (fmoles/1 × 10^6 cells) [6]: 402
pKd [6]: 9.34
Receptors/cell (receptors/cell) [6]: 242000

CC/C(=C(\c1ccc(O)cc1)c1ccc(OCCN(C)C)cc1)c1ccccc1 [4-OH Tamoxifen, 4-hydroxytamoxifen]
decrease in 177Lu-AMBA binding (GRP receptor specific signal per cell) [7]: up to 73%
decrease in 177Lu-AMBA binding (GRP receptor specific signal per cell) [8]: up to 35%
change in GRP receptor specific signal per cell (177Lu-AMBA binding) [9]: no change
decrease in glycolysis (2-NBDG uptake) ([10]; ZR-75-1): ~20%
change in cell proliferation ([10]; ZR-75-1, 0-0.1 μM): little change
inhibition of proliferation ([11]; ZR-75-1, 100 nM, by 12 day): 28%
2-NBDG uptake [11, 19]: smaller changes
177Lu-AMBA uptake [11, 19]: significant reduction

175Lu-L70 (peptide)
pEC50 [12]: 8.89
pEC50 [13]: 8.83
pIC50 [14]: 9.10
pIC50 [15]: 9.05

GNLWATGHFM-NH2
competition at NMB-R [4]: effective NMB competitors
receptor preference in words (GRP-R / GRP-R and NMB-R) ([4]; wrapped cell: 'No selective preference' or 'preference for NMB-R'): preference for NMB-R
competition at the GRP-R [16]: unable to compete

Ga-AMBA (non-radioactive) (peptide)
pEC50 [12]: 9.00
pEC50 [13]: 8.94

N-[(3β,5β,12α)-3-[[[4,7,10-Tris(carboxymethyl)-1,4,7,10-tetraazacyclododec-1-yl]acetyl]amino]-glycyl-4-aminobenzoyl-L-leucyl-L-tryptophyl-L-alanyl-L-valinyl-glycyl-L-serinyl-L-phenylalanyl-L-methioninamide [Compound L225]
competition at the GRP-R [16]: reduces competition at the GRP-R

[DTyr6, βAla11, Phe13, Nle14]-BBN(6-14) (peptide)
pIC50 [14]: 9.15
pIC50 [15]: 9.10

N-[(3β,5β,12α)-3-[[[4,7,10-Tris(carboxymethyl)-1,4,7,10-tetraazacyclododec-1-yl]acetyl]amino]-glycyl-4-aminobenzoyl-L-glutaminyl-L-tryptophyl-L-alanyl-glycyl-L-histidyl-L-phenylalanyl-L-leucinamide [Compound L224]
competition at the GRP-R [16]: complete loss of binding

yGNLWATGHFM-NH2
competition at NMB-R [4]: effective NMB competitors
competition at the GRP-R [16]: unable to compete

N-[4-[[[[[4,7,10-Tris(carboxymethyl)-1,4,7,10-tetraazacyclododec-1-yl]acetyl]amino]acetyl]amino]benzoyl]-L-glutaminyl-L-tryptophyl-L-alanyl-L-valyl-glycyl-L-histidyl-L-leucyl-L-methioninamide [Compound L70]
Internalisation (40 minutes) [1]: 70%
Efflux (2 h) [1]: 12%
uptake in the tumor ([2]; mouse, in vivo): much higher
survival, Short Term Efficacy Study [3]: increased survival
survival, Long Term Efficacy Study [3]: significantly increased survival
receptor subtype preference (GRP-R vs NMB-R) [4]: dual affinity

DO3A-Gly-Abz4-Gln-Trp-Ala-Val-Gly-His-Phe-Leu-NH2 [Compound L300]
competition at the GRP-R [16]: high activity at the GRP-R
